Consider 20 compounds from patent US9540364B2, “Benzimidazole tetrahydrofuran derivatives” (Merck Sharp & Dohme Corp., priority 2012, dated 2017).

Assay [1] has as its target recombinant human AMPK complex 7 (containing α2β1γ1) (Homo sapiens (Human), UniProt P54646+Q9Y478). The experiment in a line: In vitro AMPK activation assay (AMPKSAMSF). Conditions: for EC50: inflection point reflecting 50% of the maximum activation; for Emax: recombinant human AMPK complex 7 (α2β1γ1), 10-point titration, read-out: % Maximum AMP Activation of human AMPK Complex 7. Format: biochemical. On the procedure: The recombinant human AMPK complex 1 (containing α1β1γ1) or AMPK complex 7 (containing α2β1γ1) was obtained from baculovirus expression system. Recombinant viruses were generated by cotransfection of AMPK/pBacPak9 clones with Baculogold baculovirus DNA (Pharmingen) in spodoptera frugiperda 21 cells according to the manufacturer's instructions. Each round of virus amplification was performed for 5 days in Grace's medium containing 10% serum. Virus that had been subjected to three rounds of amplification was used for all protein production procedures. To express the AMPK complex, sf21 cells were adapted to serum free medium (SF900 II, Invitrogen) by sequential dilution from serum containing stocks into SF900II medium and maintained in shaker flasks at 90 rpm at 27° C. The recombinant AMPK enzyme complex was produced by triple infection, one recombinant virus for each of the subunits, in sf21 cells under serum free conditions. Cells were infected in log phase, 1×10^6 cells/ml, at a multiplicity of infection of ˜5. Cells were harvested by centrifugation at 10,000×g for 15 minutes after 72 hours of infection with viruses. The insect cell pellet from 2 liters of culture was resuspended in 50 ml lysis buffer (20 mM Tris-HCl, 50 mM NaCl, 50 mM NaF, 30 mM Na PPi, 0.25 M sucrose, 10 mM ZnCl2, 2 mM DTT, 0.4 mg/ml digitonin) and subjected to two cycles of freeze-thaw lysis in a dry-ice ethanol bath. Insoluble material was removed by centrifugation at 10,000×g and the supernatant was fractionated with use of polyethylene glycol (PEG). The protein fraction precipitating between 2.5 and 6% PEG was used for further purification using a Blue-Sepharose step (Zhou et al, J. Clin. Invest. 108, 1167-1174, 2001).
The in vitro AMPK activation assay is performed in a volume of 30 μl in a 384-well plate. Enzyme reactions were assembled in the microtiter plate by adding 15 μl of 2× enzyme in assay buffer (20 mM HEPES, pH 7.3, 5 mM MgCl2, 3 mM DTT, 0.01% Brij 35 and CamK Kinase, to activate AMPK) to wells which contained either DMSO or compound. The reaction was initiated with the addition of 15 μl 2× substrate mixture containing 200 μM ATP, and 3.0 μM fluorescently labeled SAMS (5-FAM-HMRSAMSGLHLVKRR-COOH) in assay buffer. After 45-minute incubation at 25° C., the reaction was stopped by the addition of 70 μl stop buffer (100 mM HEPES, pH 7.3, 40 mM EDTA, 0.015% Brij 35). Phosphorylated 5-FAM SAMS product is assessed using a Caliper EZ Reader LabChip microfluidics reader. Product conversion is determined by calculating the peak heights of the substrate and product and reporting the product/(product+substrate) peak ratio. The 10-point titration data were expressed as % maximum AMP activation. The results were plotted using 4 parameter fit and the inflection point reflecting 50% of the maximum activation was reported as the EC50.

A further assay relates to ob/ob and db/db mice. Conditions: following 8 weeks of administration; cited from earlier work.

Chain of recombinant human AMPK complex 7 (containing α2β1γ1) (P54646 whole entry): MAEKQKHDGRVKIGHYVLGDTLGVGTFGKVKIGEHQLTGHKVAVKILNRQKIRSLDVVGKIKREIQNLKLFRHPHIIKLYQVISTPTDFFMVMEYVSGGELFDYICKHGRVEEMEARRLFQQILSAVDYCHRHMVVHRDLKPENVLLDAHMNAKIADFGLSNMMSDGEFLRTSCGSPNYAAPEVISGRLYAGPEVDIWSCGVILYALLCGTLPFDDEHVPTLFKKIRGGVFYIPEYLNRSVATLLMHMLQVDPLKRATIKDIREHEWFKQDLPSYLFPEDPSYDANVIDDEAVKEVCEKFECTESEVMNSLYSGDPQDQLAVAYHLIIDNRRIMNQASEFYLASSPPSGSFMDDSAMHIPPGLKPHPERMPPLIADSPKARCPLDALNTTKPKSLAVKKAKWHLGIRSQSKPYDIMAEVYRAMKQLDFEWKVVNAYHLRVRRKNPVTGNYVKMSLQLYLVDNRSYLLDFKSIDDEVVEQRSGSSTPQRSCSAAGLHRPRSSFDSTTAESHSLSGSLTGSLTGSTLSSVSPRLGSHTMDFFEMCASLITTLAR
Chain of recombinant human AMPK complex 7 (containing α2β1γ1) (Q9Y478 whole entry): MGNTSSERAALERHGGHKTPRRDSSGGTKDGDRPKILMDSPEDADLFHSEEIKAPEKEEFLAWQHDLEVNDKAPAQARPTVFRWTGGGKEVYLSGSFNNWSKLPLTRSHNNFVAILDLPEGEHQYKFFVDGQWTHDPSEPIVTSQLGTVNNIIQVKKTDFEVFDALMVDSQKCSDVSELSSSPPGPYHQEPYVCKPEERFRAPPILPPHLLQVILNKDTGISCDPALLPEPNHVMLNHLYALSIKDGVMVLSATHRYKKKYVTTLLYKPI
Chain of recombinant human AMPK complex 7 (containing α2β1γ1) (P54619 whole entry partner): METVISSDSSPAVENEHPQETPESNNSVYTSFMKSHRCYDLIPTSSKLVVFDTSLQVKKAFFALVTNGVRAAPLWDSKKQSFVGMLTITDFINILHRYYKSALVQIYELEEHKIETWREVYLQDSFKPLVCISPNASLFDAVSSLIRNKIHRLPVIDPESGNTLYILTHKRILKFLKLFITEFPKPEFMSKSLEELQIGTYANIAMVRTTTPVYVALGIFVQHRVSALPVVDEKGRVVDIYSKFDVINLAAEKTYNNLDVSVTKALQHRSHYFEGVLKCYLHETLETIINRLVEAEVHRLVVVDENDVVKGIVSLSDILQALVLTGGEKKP

As for `OC[C@H]1OC[C@@H](Oc2nc3c(F)c(-c4ccc(-c5ccc(-n6cccn6)cc5)cc4)c(F)cc3[nH]2)[C@@H]1O` [Example 17], in assay [1], the concentration for a half-maximal effect (EC50) – broadly, the concentration that produces a half-maximal response – was 20 nM and the Emax is 313%.
On the same counts, the results for `OC[C@H]1OC[C@@H](Oc2nc3cc(-c4ccc(-c5ccccc5)cc4)c(Cl)cc3[nH]2)[C@@H]1O` [Example 1, (2R,3R,4R)-4-[[6-chloro-5-(4-phenylphenyl)-1H-benzimidazol-2-yl]oxy]-2-(hydroxymethyl)tetrahydrofuran-3-ol] are 216 nM and 301%.
In the same order, the values of `CNC(=O)c1ccc(-c2ccc(-c3cc4nc(O[C@@H]5CO[C@H](CO)[C@H]5O)[nH]c4cc3Cl)cc2)cc1` [Example 3] are 8 nM and 262%.
In the same order, the values of `CC(CO)(CO)c1ccc(-c2ccc(-c3c(F)cc4[nH]c(O[C@@H]5CO[C@H](CO)[C@H]5O)nc4c3F)cc2)cc1` [Example 16] are 6 nM and 313%.
Take `N#Cc1ccc(-c2ccc(-c3cc4nc(O[C@@H]5CO[C@H](CO)[C@H]5O)[nH]c4cc3Cl)cc2)c(F)c1` [Example 5]: in assay [1], the EC50 was 209 nM and the Emax came to 288%.
On to `NC(=O)c1ncn([C@@H]2O[C@H](CO)[C@@H](O)[C@H]2O)c1N` [AICAR], for which, in the assay with ob/ob and db/db mice, the blood glucose reduction is on record as 35%.
As to `OC[C@H]1OC[C@@H](Oc2nc3cc(-c4ccc(-c5cccc(F)c5)cc4)c(Cl)cc3[nH]2)[C@@H]1O` [Example 2], in assay [1], the concentration for a half-maximal effect (EC50) came out at 4290 nM and the Emax amounted to 137%.
With `OC[C@H]1OC[C@@H](Oc2nc3c(F)c(-c4ccc(-c5ccc(-c6nccc(O)n6)cc5)cc4)c(F)cc3[nH]2)[C@@H]1O` [Example 15], in assay [1], the EC50 came to 3 nM and the Emax was determined as 299%.
In the same order, the values of `Cc1cc(-c2ccc(-c3ccc(-c4c(F)cc5[nH]c(O[C@@H]6CO[C@H](CO)[C@H]6O)nc5c4F)cc3)cc2)[nH]n1` [Example 20] are 50 nM and 246%.
In the same order, the values of `OC[C@H]1OC[C@@H](Oc2nc3cc(-c4ccc(-c5ccc(C6CNCCO6)cc5)cc4)c(Cl)cc3[nH]2)[C@@H]1O` (stereo partly drawn) [Example 10] are 34 nM and 210%.
In the same order, the values of `OC[C@H]1OC[C@@H](Oc2nc3c(F)c(-c4ccc(-c5ccc(C6CNCCO6)cc5)cc4)c(F)cc3[nH]2)[C@@H]1O` (stereo partly drawn) [Example 18] are 34 nM and 316%.
On to `OC[C@H]1OC[C@@H](Oc2nc3cc(-c4ccc(-c5ccc(-n6ccnn6)cc5)cc4)c(Cl)cc3[nH]2)[C@@H]1O` [Example 7], for which, in assay [1], the EC50 came out at 8 nM and the Emax is 233%.
For the compound `CC(CO)(CO)c1ccc(-c2ccc(-c3cc4nc(O[C@@H]5CO[C@H](CO)[C@H]5O)[nH]c4cc3Cl)cc2)cc1` [Example 8], in assay [1], the concentration giving a half-maximal response (EC50) was 5 nM and the Emax came out at 278%.
As for `OC[C@H]1OC[C@@H](Oc2nc3c(F)c(-c4ccc(-c5ccc(-c6nccs6)cc5)cc4)c(F)cc3[nH]2)[C@@H]1O` [Example 19], in assay [1], the concentration for a half-maximal effect (EC50) worked out at 67 nM and the Emax turned out to be 251%.
With `N#Cc1ccc(-c2ccc(-c3c(F)cc4[nH]c(O[C@@H]5CO[C@H](CO)[C@H]5O)nc4c3F)cc2)c(F)c1` [Example 21], in assay [1], the EC50 is 38 nM and the Emax was 230%.
In the same order, the values of `CNC(=O)c1ccc(-c2ccc(-c3c(F)cc4[nH]c(O[C@@H]5CO[C@H](CO)[C@H]5O)nc4c3F)cc2)cc1` [Example 14] are 4 nM and 340%.
In the same order, the values of `OC[C@H]1OC[C@@H](Oc2nc3cc(-c4ccc(-c5ccc(-c6nccs6)cc5)cc4)c(Cl)cc3[nH]2)[C@@H]1O` [Example 12] are 76 nM and 170%.
Regarding `Cc1cc(-c2ccc(-c3ccc(-c4cc5nc(O[C@@H]6CO[C@H](CO)[C@H]6O)[nH]c5cc4Cl)cc3)cc2)[nH]n1` [Example 4], in assay [1], the EC50 stood at 104 nM and the Emax came out at 172%.
On the same counts, the results for `OC[C@H]1OC[C@@H](Oc2nc3c(F)c(-c4ccc(-c5ccc(-n6ccnn6)cc5)cc4)c(F)cc3[nH]2)[C@@H]1O` [Example 13] are 5 nM and 283%.
In the same order, the values of `OC[C@H]1OC[C@@H](Oc2nc3cc(-c4ccc(-c5ccc(-n6cccn6)cc5)cc4)c(Cl)cc3[nH]2)[C@@H]1O` [Example 9] are 33 nM and 269%.
